Experiment in all cases: relative viability (nuclei count vs DMSO), 5 days (fraction); higher = more cells survive
Compound in assay [1]: CC(O)(CS(=O)(=O)c1ccc(F)cc1)C(=O)Nc1ccc(C#N)c(C(F)(F)F)c1 [Bicalutamide] + CC(C)C[C@H](NC(=O)[C@H](Cc1ccccc1)NC(=O)c1cnccn1)B(O)O [Bortezomib] (partner 0.002 µM)
Summed up:
(§1)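 Dosing by pin tool came one day after lung cancer cell lines were seeded in 1536-well plates, using either one drug or a fixed anchor-drug dose plus five library-drug doses (not always all listed) in √10 steps. After 5 days, nuclei were counted on 4× images. Relative viability is treated-well nuclei count divided by vehicle-well nuclei count, and values are medians of duplicate plates.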

Compound in assay [2]: C(C(=O)C(=O)O)Br [Bromopyruvate] + CC(=O)Nc1cccc(-n2c(=O)n(C3CC3)c(=O)c3c(Nc4ccc(I)cc4F)n(C)c(=O)c(C)c32)c1 [Trametinib] (partner 0.02 µM)
Summed up: as §1

Compound in assay [3]: CC(O)(CS(=O)(=O)c1ccc(F)cc1)C(=O)Nc1ccc(C#N)c(C(F)(F)F)c1 [Bicalutamide] + Nc1nc2[nH]cc(CCc3ccc(C(=O)N[C@@H](CCC(=O)O)C(=O)O)cc3)c2c(=O)[nH]1 [Pemetrexed] (partner 0.2 µM)
Summed up:
as §1

Compound in assay [4]: CC(O)(CS(=O)(=O)c1ccc(F)cc1)C(=O)Nc1ccc(C#N)c(C(F)(F)F)c1 [Bicalutamide] + CCNC(=O)c1noc(-c2cc(C(C)C)c(O)cc2O)c1-c1ccc(CN2CCOCC2)cc1 [Luminespib] (partner 0.01 µM)
Summed up: as §1

UMC-11: the relative viability came out at 0.758 in assay [1] (first compound 0.08 µM); 0.67 in assay [1] (first compound 0.253 µM); 0.762 in assay [1] (first compound 0.8 µM); 0.596 in assay [1] (first compound 2.53 µM); 0.746 in assay [2] (first compound 1 µM); 0.604 in assay [2] (first compound 3.162 µM). Further, the relative viability in assay [2] (first compound 10 µM) is 0.622; in assay [2] (first compound 31.62 µM) it was 0.732; in assay [2] (first compound 100 µM), 0.748; in assay [3] (first compound 0.08 µM), 0.83; in assay [3] (first compound 0.253 µM), 0.732; in assay [3] (first compound 0.8 µM) it was 0.829. Besides, the relative viability in assay [3] (first compound 2.53 µM) amounted to 0.756; in assay [4] (first compound 0.08 µM), 1.07; in assay [4] (first compound 0.253 µM), 1.03; in assay [4] (first compound 0.8 µM), 1.14; in assay [4] (first compound 2.53 µM), 0.949.

The record behind these values is the supplement of paper PMC10307832.
